Assay results reported in patent publication US8530667B2, “Herbicides” (Syngenta Limited, priority 2007, dated 2013).

Key:
Type in all cases: in vivo
[1] = test system: Alopecurus myosuroides (ALOMY); test: Example A pre-emergence herbicidal activity, glasshouse pot test; settings: evaluated 19 or 20 days later, read-out: Pre-Emergence Activity ALOMY (100=total damage to plant; 0=no damage to plant); for pest or weed control at 500 g/ha: Rate 500 g/ha; for pest or weed control at 250 g/ha: Rate 250 g/ha
Description: (§1) Seeds of a variety of test species were sown in standard soil in pots. After cultivation for one day (pre-emergence) or after 10 days cultivation (post-emergence) under controlled conditions in a glasshouse, the plants were sprayed with an aqueous spray solution derived from the formulation of the technical active ingredient in 0.6 ml acetone and 45 ml formulation solution containing 10.6% Emulsogen EL (Registry number 61791-12-6), 42.2% N-methylpyrrolidone, 42.2% dipropylene glycol monomethyl ether (Registry number 34590-94-8) and 0.2% X-77 (Registry number 11097-66-8). The test plants were then grown in a greenhouse under optimum conditions until, 14 or 15 days later for post-emergence and 19 or 20 days for pre-emergence, the test was evaluated (100=total damage to plant; 0=no damage to plant). Alopecurus myosuroides (ALOMY), Avena fatua (AVEFA), Lolium perenne (LOLPE), Setaria faberi (SETFA), Digitaria sanguinalis (DIGSA), Echinochloa crus-galli (ECHCG)

Avena fatua (AVEFA) [2] = test: as above; settings: evaluated 19 or 20 days later, read-out: Pre-Emergence Activity AVEFA (100=total damage to plant; 0=no damage to plant); for pest or weed control at 500 g/ha: Rate 500 g/ha; for pest or weed control at 250 g/ha: Rate 250 g/ha
Description: as §1

[3] = test system: Digitaria sanguinalis (DIGSA); test: as above; settings: evaluated 19 or 20 days later, read-out: Pre-Emergence Activity DIGSA (100=total damage to plant; 0=no damage to plant); for pest or weed control at 500 g/ha: Rate 500 g/ha; for pest or weed control at 250 g/ha: Rate 250 g/ha
Description: as §1

[4] = test system: Echinochloa crus-galli (ECHCG); test: as above; settings: evaluated 19 or 20 days later, read-out: Pre-Emergence Activity ECHCG (100=total damage to plant; 0=no damage to plant); for pest or weed control at 500 g/ha: Rate 500 g/ha; for pest or weed control at 250 g/ha: Rate 250 g/ha
Description: as §1

Lolium perenne (LOLPE) [5] = test: as above; settings: evaluated 19 or 20 days later, read-out: Pre-Emergence Activity LOLPE (100=total damage to plant; 0=no damage to plant); for pest or weed control at 500 g/ha: Rate 500 g/ha; for pest or weed control at 250 g/ha: Rate 250 g/ha
Description: as §1

Setaria faberi (SETFA) [6] = test: as above; settings: evaluated 19 or 20 days later, read-out: Pre-Emergence Activity SETFA (100=total damage to plant; 0=no damage to plant); for pest or weed control at 500 g/ha: Rate 500 g/ha; for pest or weed control at 250 g/ha: Rate 250 g/ha
Description: as §1

[7] = test system: Alopecurus myosuroides (ALOMY); test: Example A post-emergence herbicidal activity, glasshouse pot test; settings: Rate 125 g/ha, evaluated 14 or 15 days later, read-out: Post-Emergence Activity ALOMY (100=total damage to plant; 0=no damage to plant)
Description: as §1

Avena fatua (AVEFA) [8] = test: as above; settings: Rate 125 g/ha, evaluated 14 or 15 days later, read-out: Post-Emergence Activity AVEFA (100=total damage to plant; 0=no damage to plant)
Description: as §1

[9] = test system: Digitaria sanguinalis (DIGSA); test: as above; settings: Rate 125 g/ha, evaluated 14 or 15 days later, read-out: Post-Emergence Activity DIGSA (100=total damage to plant; 0=no damage to plant)
Description: as §1

[10] = test system: Echinochloa crus-galli (ECHCG); test: as above; settings: Rate 125 g/ha, evaluated 14 or 15 days later, read-out: Post-Emergence Activity ECHCG (100=total damage to plant; 0=no damage to plant)
Description: as §1

Lolium perenne (LOLPE) [11] = test: as above; settings: Rate 125 g/ha, evaluated 14 or 15 days later, read-out: Post-Emergence Activity LOLPE (100=total damage to plant; 0=no damage to plant)
Description: as §1

Setaria faberi (SETFA) [12] = test: as above; settings: Rate 125 g/ha, evaluated 14 or 15 days later, read-out: Post-Emergence Activity SETFA (100=total damage to plant; 0=no damage to plant)
Description: as §1

| Compound | pest or weed control at 500 g/ha [1] [%] | pest or weed control at 500 g/ha (Avena fatua (AVEFA) [2]) [%] | pest or weed control at 500 g/ha [3] [%] | pest or weed control at 500 g/ha [4] [%] | pest or weed control at 500 g/ha (Lolium perenne (LOLPE) [5]) [%] | pest or weed control at 500 g/ha (Setaria faberi (SETFA) [6]) [%] | pest or weed control at 125 g/ha [7] [%] | pest or weed control at 125 g/ha (Avena fatua (AVEFA) [8]) [%] | pest or weed control at 125 g/ha [9] [%] | pest or weed control at 125 g/ha [10] [%] | pest or weed control at 125 g/ha (Lolium perenne (LOLPE) [11]) [%] | pest or weed control at 125 g/ha (Setaria faberi (SETFA) [12]) [%] | pest or weed control at 250 g/ha [1] [%] | pest or weed control at 250 g/ha (Avena fatua (AVEFA) [2]) [%] | pest or weed control at 250 g/ha [3] [%] | pest or weed control at 250 g/ha [4] [%] | pest or weed control at 250 g/ha (Lolium perenne (LOLPE) [5]) [%] | pest or weed control at 250 g/ha (Setaria faberi (SETFA) [6]) [%] |
| --- | --- | --- | --- | --- | --- | --- | --- | --- | --- | --- | --- | --- | --- | --- | --- | --- | --- | --- |
| Cc1nc(-c2cc(C3C(=O)[C@@H]4[C@H](C3=O)[C@H]3CC[C@@H]4O3)c(C)s2)cs1 (stereo partly drawn) [Compound T7] | 10 | 10 | 20 | 0 | 10 | 0 | 0 | 0 | 0 | 50 | 0 | 0 | – | – | – | – | – | – |
| Cc1sc(Br)cc1C1C(=O)[C@@H]2[C@H](C1=O)[C@H]1CC[C@@H]2O1 (stereo partly drawn) [Compound T5] | 0 | 20 | 0 | 0 | 0 | 0 | 10 | 10 | 30 | 0 | 0 | 10 | – | – | – | – | – | – |
| CCc1sc(-c2ccc(Cl)cc2)nc1C1C(=O)[C@@H]2[C@H](C1=O)[C@H]1CC[C@@H]2O1 (stereo partly drawn) [Compound T23, 4-[2-(4-chloro-phenyl)-5-ethyl-thiazol-4-yl]-10-oxa-tricyclo[5.2.1.0*2,6*]decane-3,5-dione] | 100 | 90 | 100 | 100 | 90 | 100 | 100 | 100 | 100 | 100 | 100 | 100 | – | – | – | – | – | – |
| CCc1sc(-c2ccc(Cl)cc2)nc1C1C(=O)[C@@H]2[C@H](C1=O)[C@@]1(C)CC[C@]2(C)O1 (stereo partly drawn) [Compound T27] | – | – | – | – | – | – | 80 | 90 | 100 | 100 | 40 | 80 | 70 | 60 | 100 | 70 | 90 | 100 |
| Cc1sc(-c2ccc(Cl)cc2)cc1C1C(=O)[C@@H]2[C@H](C1=O)[C@H]1CC[C@@H]2O1 (stereo partly drawn) [Compound T12] | 10 | 20 | 0 | 30 | 10 | 20 | 80 | 80 | 80 | 80 | 30 | 70 | – | – | – | – | – | – |
| Cc1sc(-c2ccc(Cl)nc2)nc1C1C(=O)[C@@H]2[C@H](C1=O)[C@H]1CC[C@@H]2O1 (stereo partly drawn) [Compound T30] | – | – | – | – | – | – | 0 | 10 | 70 | 70 | 20 | 40 | 10 | 30 | 60 | 80 | 40 | 70 |
| Cc1sc(-c2ccc(Cl)cc2)nc1C1C(=O)[C@H]2[C@@H]3CC[C@@](C)(O3)[C@H]2C1=O (mixture of isomers) [Compound T24] | – | – | – | – | – | – | 70 | 70 | 90 | 100 | 30 | 80 | 90 | 60 | 100 | 100 | 90 | 100 |
| CCc1csc(CC)c1C1C(=O)[C@@H]2[C@H](C1=O)[C@H]1CC[C@@H]2O1 (stereo partly drawn) [Compound T15] | – | – | – | – | – | – | 50 | 40 | 40 | 90 | 40 | 70 | 70 | 10 | 30 | 90 | 10 | 20 |
| Cc1csc(C)c1C1C(=O)[C@@H]2[C@H](C1=O)[C@H]1CC[C@@H]2O1 (stereo partly drawn) [Compound T10] | – | – | – | – | – | – | 10 | 40 | 40 | 60 | 20 | 60 | 10 | 10 | 30 | 30 | 20 | 0 |
| Cc1sc(-c2ccc(Br)cc2)nc1C1C(=O)[C@@H]2[C@H](C1=O)[C@H]1CC[C@@H]2O1 (stereo partly drawn) [Compound T28] | – | – | – | – | – | – | 70 | 70 | 100 | 100 | 50 | 80 | 100 | 100 | 100 | 100 | 100 | 100 |
| Cc1sc(-c2ccc(Cl)cc2)nc1C1C(=O)[C@@H]2[C@H](C1=O)[C@@]1(C)CC[C@]2(C)O1 (stereo partly drawn) [Compound T26] | – | – | – | – | – | – | 10 | 0 | 30 | 0 | 0 | 0 | 90 | 60 | 100 | 80 | 70 | 100 |
